The data set can be described thus: Human HepG2 cell viability assay in 384 well format. It counts as toxicity, cell-based. Further details: dose 125 nL, time 70.5 hour; concentration not given beside the values. Conditions: HepG2 cells, read-out: Inhibition.

As to `COc1cccc(CC(=O)N2CCC(Cc3nnc(SC)n3C)CC2)c1`, the cytotoxicity at 70.5 h is -23.6%.

Take `CCCn1ncnc1C(C)NC(=O)C1CCN(CC(N)=O)CC1` (stereo not drawn): the cytotoxicity at 70.5 h was -6.92%.

Turning to `CN1C[C@H]2CNC[C@@]2(C(=O)NC2CCN(c3ncccc3C#N)CC2)C1`, the cytotoxicity at 70.5 h was 1.46%.

With `CCOCc1nc2c(c(N(C)Cc3nonc3C)n1)CCNCC2`, the cytotoxicity at 70.5 h was -11.4%.

As to `Nc1nc2c(c(N3CCC(CCn4cccn4)CC3)n1)CCNCC2`, the cytotoxicity at 70.5 h was -5.53%.

For `Cc1ncc2c(c1CNC(=O)C1(c3ccc(F)cc3)CC1)CCNC2`, the cytotoxicity at 70.5 h was -5.4%.

For the molecule `O=C(c1cc(-n2cccn2)ccc1Cl)N1CCC(N2CCCC2=O)CC1`, the cytotoxicity at 70.5 h is -9.31%.

Consider `CNc1ncc(CN(C)C(=O)c2cccc(-n3cnnc3)c2)cn1`, for which the cytotoxicity at 70.5 h amounted to 11.7%.

Turning to `CC(C)c1ccc(CC(=O)N2CCCC3(CN(C)C(=O)O3)C2)cc1` (stereo not drawn), the cytotoxicity at 70.5 h stood at 22.5%.

As to `CCc1ccc(CN(C)C(=O)c2ccc(CSc3nnc[nH]3)o2)nc1`, the cytotoxicity at 70.5 h was -11.2%.

Take `CC(C)C1CN(c2ncccc2Cl)CCC(=O)N1Cc1ccc(F)cc1` (stereo not drawn): the cytotoxicity at 70.5 h turned out to be 4.1%.

With `CN1CCN(Cc2noc(CC3CCc4ccccc43)n2)CC1` (stereo not drawn), the cytotoxicity at 70.5 h is -7.61%.

Regarding `O=C(c1ccccn1)N1C[C@@H]2CC[C@H](C1)N(C(=O)c1ccsc1)C2`, the cytotoxicity at 70.5 h was 26.5%.

On to `Cc1[nH]ccc1C(=O)N1CCCC(c2ccc(C(=O)O)cc2)C1` (stereo not drawn), for which the cytotoxicity at 70.5 h was -22.6%.

Consider `O=C(N[C@@H]1CCCNC1)C1(Oc2ccc(Cl)cc2)CCNCC1`, for which the cytotoxicity at 70.5 h is 13.1%.

As for `O=C(O)[C@@H]1CN(CC2CCC2)C[C@H]1c1ccc(F)cc1`, the cytotoxicity at 70.5 h is -7.16%.

`Cc1nn(C)c2nc(N(C)CCN(C)C)sc12`: the cytotoxicity at 70.5 h is -9.29%.

For `CCc1cc(C(=O)N2CCC3(CCCN(CC4CC4)C3=O)C2)cs1` (stereo not drawn), the cytotoxicity at 70.5 h is 6.71%.

As for `Cc1c[nH]c(C(=O)N2CCCC2c2ccc(C(=O)N3CCSCC3)s2)n1` (stereo not drawn), the cytotoxicity at 70.5 h is -11.4%.

For `CCC(OC)C(=O)NCc1cc2n(n1)CCCN(C1CCCCC1)C2` (stereo not drawn), the cytotoxicity at 70.5 h is -9.86%.

Turning to `CC(=O)NCc1nnc2n1CCN(c1ncnc3c(C)csc13)CC2`, the cytotoxicity at 70.5 h came out at 27%.

Turning to `O=C(O)C1CN(Cc2cnc(C3CCCCC3)nc2)CCO1` (stereo not drawn), the cytotoxicity at 70.5 h was 17.1%.

For `O=C(CC1CCCC1)N1CCC2(CC1)[C@H](O)C[C@@H]2O`, the cytotoxicity at 70.5 h was -12.2%.

In the case of `Cc1ccc(CCNc2ncc(C)c(-c3ccnn3C)n2)s1`, the cytotoxicity at 70.5 h is -8.02%.

In the case of `CN(CCC1CCCCO1)c1nncc(-c2ccccc2)n1` (stereo not drawn), the cytotoxicity at 70.5 h was -0.965%.

Regarding `CC(C)(O)CCc1cccc(C(=O)NCCC2CCOC2)c1` (stereo not drawn), the cytotoxicity at 70.5 h was -0.764%.

As for `COc1ccc(OC)c(C2CCN(C(=O)C3CCN(C(C)C)CC3)C2)c1` (stereo not drawn), the cytotoxicity at 70.5 h was -8.95%.

As to `CC[C@@]1(O)CCN(C(=O)c2ccc(-n3cnnc3)cc2)C[C@H]1O`, the cytotoxicity at 70.5 h worked out at 20.9%.

Turning to `Clc1ccccc1OC1CN(CC2CCOC2)C1` (stereo not drawn), the cytotoxicity at 70.5 h stood at 8.25%.

In the case of `Cc1ccc(CN2CCN(C(=O)C3CCC3)[C@@H]3CS(=O)(=O)C[C@@H]32)cc1C`, the cytotoxicity at 70.5 h is -0.626%.

For `CCS(=O)(=O)c1ncc(CN2CCOCC2)n1CCCc1ccccc1`, the cytotoxicity at 70.5 h amounted to 19.9%.

As for `Cc1cccc(-n2nc(CC(C)C)nc2CCn2ccc(=O)[nH]c2=O)c1`, the cytotoxicity at 70.5 h was -2.09%.

Turning to `CC(C)c1cc(=O)[nH]c(-c2ccccc2CN2CCC(C)(C)C2)n1`, the cytotoxicity at 70.5 h worked out at 5.1%.

`Cc1cc(C2CCC2)nc(N2CCN(Cc3nccn3C)CC2)n1`: the cytotoxicity at 70.5 h is -1.45%.

As to `CN(C)CCNC(=O)CCC1CCN(C(=O)c2ccc(O)cn2)CC1`, the cytotoxicity at 70.5 h was -6.92%.

Regarding `CCOC(=O)CCNC(=O)N1CCOC(Cc2cccc(OC)c2)C1` (stereo not drawn), the cytotoxicity at 70.5 h was -9.71%.

On to `O=C(Cc1ccc(F)cc1Cl)N[C@@H]1CCNC[C@H]1O`, for which the cytotoxicity at 70.5 h was -6%.

Regarding `Cc1ccc(OC2(C(=O)O)CCN(C(=O)c3cccc(F)c3)CC2)cn1`, the cytotoxicity at 70.5 h was 2.13%.

Values taken from ChEMBL document CHEMBL3507680, “University of Dundee, Gates Library screen for HepG2 cell viability”.
